Values belong to the molecule of their own block, whether it stands above or below them.
What was measured:
[1] = female, human, in vivo, 72 h
Method: (§1) Nonpregnant women scheduled for mastectomy to prevent or treat breast cancer were recruited through the Lynn Sage Comprehensive Breast Center of Northwestern Medicine. All participants were randomized to patch application to one surgical breast (per participant) or the abdominal skin. The diclofenac patch (Flector® patch, 10 cm×14 cm) is a semi-occlusive, bioadhesive patch containing 129.7 mg of diclofenac acid. After baseline evaluation, the participants were instructed on site of patch application and to replace patch every 12 h over 72 h prior to surgery.
(§2) The breast group wore the patch over the upper outer breast, with the lower inner corner of the patch at the level of the nipple (FIG. 3b). The abdominal group wore the patch on the lower abdomen on the side opposite the planned mastectomy (FIG. 3a). Participants were assessed for baseline signs/symptoms and then by telephone the second day of the treatment and on the day of surgery. All adverse events were coded using the NCI Common Terminology Criteria for Adverse Events version 4.0.
(§3) On the day of surgery, the transdermal patch was removed in the operating room prior to anesthesia and 30 mL venous blood was collected with anticoagulant K2EDTA (BD Vacutainer®, BD Hemogard™ product no. 366643). Tissue samples from the mastectomy specimen were obtained from eight predetermined locations of one breast per participant (FIG. 3b), four central/periareolar and four peripheral samples 5 cm away, at 12, 3, 6, and 9 O'clock. Each tissue sample was weighed and snap-frozen in liquid nitrogen and kept in −80° C. until analysis.
(§4) Formalin-fixed, paraffin-embedded (FFPE) samples were taken from locations adjacent to the drug assay samples, for histological evaluation of tissue composition, and were available from all subjects.
(§5) The concentrations of all the drugs used in rats and humans were determined by liquid chromatography-tandem mass spectroscopy (API 3000; AB SCIEX, Foster City, Calif., USA). […] The mobile phase was A: 0.1% formic acid in water (v/v) and B: 0.1% formic acid in acetonitrile (v/v). […] The lowest limits of quantification (LLOQ) were as follow: tamoxifen and N-desmethyl tamoxifen (NDT) (plasma 10 ng/mL; tissue 40 ng/g); 4-OHT and endoxifen (plasma 0.5 ng/mL; tissue 2 ng/g); telapristone and N-desmethyl telapristone (d-telapristone) (plasma 1 ng/mL; tissue 1.5 ng/g); and diclofenac (plasma 0.5 ng/mL; tissue 2 ng/g).
(§6) The medians and IQR's were reported for diclofenac concentrations by breast region and patch groups (Table 9). To compare breast concentrations by site of patch application, we replaced non-detectable values with “zero” and considered the median concentration from eight samples as the representative breast concentration per individual for statistical purposes. The Wilcoxon rank-sum test was used to assess median concentration differences between patch groups, among regions of the breast, and by menopausal status within each treatment group.
(§7) Diclofenac was determined by LC-MS/MS (API 3000; AB SCIEX, Foster City, Calif.).

clinical = conditions: female, human, in vivo
Method: as §1, §2, §3, §4, §5, §6, §7

MCF-7 xenograft = conditions: dose of 2-8 mg/kg; cited from earlier work
[2] = Plasma, breast adipose tissue and NAF concentrations of tamoxifen and its metabolites (LC-MS/MS), presurgical trial; assay type: in vivo, human; conditions: in vivo
Text: All participants provided informed consent. Baseline assessments included a history and physical, explanation of gel application, completion of the Breast Cancer Prevention Trial Eight Symptom Scale (BESS) questionnaire, collection of a venous blood sample, and collection of nipple aspirate fluid (NAF) from NAF yielders. […] Treatment began within 5 days post-randomization and ended on the day prior to surgical resection. Participants were instructed to apply the gel to the entire skin envelope of each breast each morning, after a shower. Duration of therapy was 6-10 weeks. Compliance was assessed through participant diaries, counts of returned pills and of returned gel canisters. Participants who took at least 80% of the prescribed dose were considered compliant.
Assessments similar to those performed at baseline were repeated on the day prior to, or on the morning of surgery. During surgery, breast adipose tissue from the surgical sample was snap frozen and stored at −80° C. for measurement of tamoxifen and metabolites. The samples were obtained from a location adjacent to the DCIS lesion to provide uniformity between participants undergoing breast conservation and mastectomy. The paraffin block of the core and excision samples were acquired by the recruiting institution and 10 sections from each specimen were submitted to the NU Pathology Core Facility. The sections were cut in batches (with pre- and post-treatment samples in the same batch), shipped cold, and processed for immunohistochemistry within four weeks.
(Z)-tamoxifen, (Z)-NDT, (E) and (Z)-4-OHT, and (Z)-endoxifen were measured by liquid chromatography-tandem mass spectrometry with a turbo ion spray interface operating in positive mode (API 3000; AB SCIEX, Foster City, Calif.). […] For analysis of NAF, samples were collected in a capillary tube and diluted with 200 μL of phosphate buffered saline; 100 μL of the diluted NAF sample was used for analysis. Breast adipose tissue samples, 25 mg, were minced and treated with 125 μL of […] and extracted as described above.
Retention times for (Z)-tamoxifen, (Z)-NDT, (Z)-4-OHT, (E)-4-OHT and (Z)-endoxifen were 7.3, 6.8, 5.1, 4.7 and 4.5 min, respectively. […] In three participants, matched samples were not available: breast adipose tissue was not collected in two, and the plasma sample was missing in one.
Since the fraction of E and Z isoforms of 4-OHT was of particular interest, we used an additional validated method to study plasma concentrations of these metabolites in a different laboratory (Eurofins Medinet, Chantilly, Va.): Plasma from blood samples collected in lithium-heparin tubes was frozen at −20° C., shipped in batches on dry ice to them Eurofins Medinet central laboratory; LC-MS/MS was used for the simultaneous determination of (E) 4-OHT and (Z) 4-OHT, with a lower limit of quantitation (LOQ) of 10 pg/mL and upper LOQ of 10,000 pg/mL. Eurofins Medinet developed and validated them method for BHR Pharma, in accordance with the FDA Guidance on Bioanalytical Method Validation.

ERβ = ERβ (Homo sapiens, UniProt Q92731); conditions: cited from earlier work
[3] = alcoholic solution of ENX 0.2 mg/mL with 0.5% oleic acid; cited from earlier work
MCF7 xenograft [4] = conditions: simulation using human PK; cited from earlier work
ERα = target: T1, ERα (Homo sapiens, UniProt P03372); conditions: cited from earlier work
T1 sequence (P03372 1-595): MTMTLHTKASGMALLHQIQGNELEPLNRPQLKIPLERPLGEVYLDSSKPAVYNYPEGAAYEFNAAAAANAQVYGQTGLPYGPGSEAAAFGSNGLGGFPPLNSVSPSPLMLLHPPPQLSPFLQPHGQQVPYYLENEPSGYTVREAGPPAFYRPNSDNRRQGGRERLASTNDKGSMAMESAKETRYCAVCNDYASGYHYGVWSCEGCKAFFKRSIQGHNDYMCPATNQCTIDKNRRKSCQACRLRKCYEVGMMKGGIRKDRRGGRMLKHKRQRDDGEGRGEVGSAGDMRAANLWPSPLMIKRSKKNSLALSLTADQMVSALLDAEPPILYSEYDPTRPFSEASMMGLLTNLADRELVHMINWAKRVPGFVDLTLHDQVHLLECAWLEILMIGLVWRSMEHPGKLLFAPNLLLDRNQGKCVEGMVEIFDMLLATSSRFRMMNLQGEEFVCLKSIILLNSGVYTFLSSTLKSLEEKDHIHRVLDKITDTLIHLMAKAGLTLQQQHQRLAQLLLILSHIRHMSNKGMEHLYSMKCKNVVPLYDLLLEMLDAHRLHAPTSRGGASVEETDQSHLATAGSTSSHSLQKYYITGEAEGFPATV

MCF7 xenograft [5] = conditions: MCF7 xenograft bearing mice, cited from earlier work
[6] = oral dose of 160 mg daily; cited from earlier work

ERβ, sequence (Q92731 whole entry): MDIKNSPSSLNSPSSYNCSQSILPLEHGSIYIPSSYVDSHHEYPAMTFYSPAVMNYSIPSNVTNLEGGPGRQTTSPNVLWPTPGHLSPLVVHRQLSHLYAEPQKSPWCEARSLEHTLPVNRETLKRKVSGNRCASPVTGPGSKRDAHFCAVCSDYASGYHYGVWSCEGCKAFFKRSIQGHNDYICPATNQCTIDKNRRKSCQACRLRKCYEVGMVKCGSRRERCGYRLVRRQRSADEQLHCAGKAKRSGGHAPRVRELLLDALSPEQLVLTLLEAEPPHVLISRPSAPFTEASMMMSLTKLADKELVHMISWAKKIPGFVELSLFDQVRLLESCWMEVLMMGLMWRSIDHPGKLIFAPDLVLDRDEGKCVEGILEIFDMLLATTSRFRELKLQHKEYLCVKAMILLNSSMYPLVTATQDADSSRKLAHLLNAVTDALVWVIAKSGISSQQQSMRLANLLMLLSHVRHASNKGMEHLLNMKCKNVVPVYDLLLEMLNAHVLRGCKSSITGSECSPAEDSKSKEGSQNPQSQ

diclofenac breast concentration, abdominal patch, All locations [1]: 0.13 (0.00, 0.37) ng/g tissue
diclofenac breast concentration, abdominal patch, sampling location 6 [1]: 0.04 (0.00, 0.48) ng/g tissue
diclofenac breast concentration, breast patch, All locations [1]: 0.77 (0.23, 2.97) ng/g tissue
diclofenac breast concentration, breast patch, sampling location 6 [1]: 0.31 (0.00, 1.23) ng/g tissue
diclofenac plasma concentration, abdominal patch [1]: 1.06 (0.81, 1.88) ng/mL
diclofenac plasma concentration, breast patch [1]: 1.02 (0.71, 1.78) ng/mL
tissue samples with detectable diclofenac, abdominal group [1]: 58%
tissue samples with detectable diclofenac, breast group [1]: 79%
concentration at 72 h (clinical; diclofenac breast concentration, abdominal patch, All locations): 0.13 ng/g
concentration at 72 h (clinical; diclofenac breast concentration, abdominal patch, sampling location 1): 0 ng/g
concentration at 72 h (clinical; diclofenac breast concentration, abdominal patch, sampling location 2): 0.18 ng/g
concentration at 72 h (clinical; diclofenac breast concentration, abdominal patch, sampling location 3): 0.2 ng/g
concentration at 72 h (clinical; diclofenac breast concentration, abdominal patch, sampling location 4): 0.19 ng/g
concentration at 72 h (clinical; diclofenac breast concentration, abdominal patch, sampling location 5): 0.11 ng/g
concentration at 72 h (clinical; diclofenac breast concentration, abdominal patch, sampling location 6): 0.04 ng/g
concentration at 72 h (clinical; diclofenac breast concentration, abdominal patch, sampling location 7): 0.14 ng/g
concentration at 72 h (clinical; diclofenac breast concentration, abdominal patch, sampling location 8): 0.08 ng/g
concentration at 72 h (clinical; diclofenac breast concentration, breast patch, All locations): 0.77 ng/g
concentration at 72 h (clinical; diclofenac breast concentration, breast patch, sampling location 1): 0.63 ng/g
concentration at 72 h (clinical; diclofenac breast concentration, breast patch, sampling location 2): 0.64 ng/g
concentration at 72 h (clinical; diclofenac breast concentration, breast patch, sampling location 3): 0.48 ng/g
concentration at 72 h (clinical; diclofenac breast concentration, breast patch, sampling location 4): 1.64 ng/g
concentration at 72 h (clinical; diclofenac breast concentration, breast patch, sampling location 5): 1.98 ng/g
concentration at 72 h (clinical; diclofenac breast concentration, breast patch, sampling location 6): 0.31 ng/g
concentration at 72 h (clinical; diclofenac breast concentration, breast patch, sampling location 7): 1.12 ng/g
concentration at 72 h (clinical; diclofenac breast concentration, breast patch, sampling location 8): 0.58 ng/g
concentration at 72 h (clinical; diclofenac plasma concentration, abdominal patch): 1.06 ng/mL
concentration at 72 h (clinical; diclofenac plasma concentration, breast patch): 1.02 ng/mL
concentration at 72 h (clinical; median breast concentration of diclofenac with IQR, fatty samples): 8.71 ng/g
concentration at 72 h (clinical; median breast concentration of diclofenac with IQR, fibrous samples): 0.19 ng/g
concentration at 72 h (clinical; median breast concentration of diclofenac with IQR, mixed samples): 0.52 ng/g
concentration at 72 h (clinical; median diclofenac breast concentration, abdominal group, medium-sized breasts): 0.21 ng/g
concentration at 72 h (clinical; median diclofenac breast concentration, abdominal group, small breasts): 0.6 ng/g
concentration at 72 h (clinical; median diclofenac breast concentration, breast group, medium-sized breasts): 1.31 ng/g
concentration at 72 h (clinical; median diclofenac breast concentration, breast group, small breasts): 1.12 ng/g
concentration at 72 h (clinical; median diclofenac concentration, central locations (1 through 4), abdominal group): 0.85 ng/g
concentration at 72 h (clinical; median diclofenac concentration, central locations (1 through 4), breast group): 4.91 ng/g
concentration at 72 h (clinical; median diclofenac concentration, peripheral locations (5 through 8), abdominal group): 0.75 ng/g
concentration at 72 h (clinical; median diclofenac concentration, peripheral locations (5 through 8), breast group): 9.92 ng/g
concentration at 72 h (clinical; range of diclofenac concentrations in tissue samples of three women, abdominal group): 1.2 to 4.8 ng/g
Molecule: O=C(O)Cc1ccccc1Nc1c(Cl)cccc1Cl [diclofenac]

Molecule: CC/C(=C(\c1ccc(O)cc1)c1ccc(OCCNC)cc1)c1ccccc1.O=C(O)CC(O)(CC(=O)O)C(=O)O [ENX citrate]
efficacy against MCF-7 xenograft model (MCF-7 xenograft): shows efficacy

NAF concentration of NDT, individual participants [2]: undetectable
NAF concentration of endoxifen [2]: undetectable
NAF concentration of tamoxifen, individual participants [2]: undetectable
participants with 4-OHT detectable in breast tissue [2]: 9 of 10
participants with 4-OHT detectable in plasma [2]: 5
breast adipose tissue concentrations of (Z) 4-OHT (discussion) ([2]; po): over 5 ng/mg
Molecule: 4-hydroxytamoxifen [4-OHT gel]

Molecule: CC/C(=C(\c1ccc(O)cc1)c1ccc(OCCNC)cc1)c1ccccc1 [Endoxifen, N-desmethyl-4-hydroxytamoxifen]
binding affinity for ERβ relative to TAM (ERβ): 56 fold
in vitro human skin penetration [3]: penetrates human skin efficiently
TGI at day 21, 0.5 mg/day oral (MCF7 xenograft [4]): 67%
TGI at day 21, 1 mg/day oral (MCF7 xenograft [4]): 87%
TGI at day 21, 4 mg/day oral (MCF7 xenograft [4]): 97%
binding affinity for ERα relative to TAM (ERα): 25 fold
Cstasis (plasma ENX showing 100% TGI) (MCF7 xenograft [5]): 0.053 µM
KC50 of plasma ENX (MCF7 xenograft [5]; tumor growth inhibition, oral ENX): 14 nM
MTT [6]: not reached

Reference: patent US10780067B2, “Endoxifen for local transdermal therapy to the breast” (Northwestern University, priority 2016, dated 2020)
